Source: article PMC9510126, “Hydrophobicity is a key determinant in the activity of arginine-rich cell penetrating peptides” (Scientific Reports, 2022)
Ends that are not written are not given here. * marks the point of attachment. carboxyfluorescein = carboxyfluorescein fluorophore coupled to the lysine ε-amine; DEAC = CCN(CC)c1ccc2cc(C(=O)*)c(=O)oc2c1

What was measured:
MDA-MB-231 cells [1] = experiment: Delivery of TMR-k5 probe into live cells (nuclear staining); format: cell-based, human; conditions: 1 h, biological triplicates; for d(X)TAT concentration at which delivery is achieved in a high percentage of cells: MDA-MB-231, TMR-k5 20 μM; for TMR-k5 delivery activity (cells with TMR-k5 nuclear staining): MDA-MB-231, d(X)TAT at various concentrations + TMR-k5 20 μM, fluorescence microscopy
Description: To test the relative delivery efficiency of the d(X)TAT peptides, the cell lines MDA-MB-231 (epithelial-like, human breast cancer, spindle-shaped) and Neuro-2a (mouse neuroblastoma with neuronal and amoeboid stem cell morphology) were chosen. These cell lines are routinely used in cancer research, neuroscience, and toxicology. In the context of this study, we rationalized that the distinct differences in origin and characteristics between MDA-MB-231 and Neuro-2a properties may be useful to assess the generality of the results obtained. MDA-MB-231 or Neuro-2a cells were incubated with d(X)TAT peptides at various concentrations and TMR-k5 (20 μM) for 1 h. Cells were then washed, incubated with the DNA stain Hoechst and the live/dead marker SYTOX green (or SYTOX blue), and imaged by fluorescence microscopy. The localization of TMR-k5 in individual nuclei was then assessed by measuring the overlap between TMR and Hoechst signals (Fig. 2, Figure S13). […] This is because, in our experience, dfTAT and dfTAT analogs display a threshold behavior where, below a certain endosomal concentration, endosomal leakage is not achieved. In contrast above this threshold most late endosomes are permeabilized. […] Our rationale was therefore to titrate cells with different concentrations of d(X)TAT agents, monitor how many cells display cytosolic/nuclear delivery of TMR-k5, and compare the different d(X)TAT peptides.
MDA-MB-231 and Neuro2a cells obtained from ATCC (breast cancer-derived epithelial) were cultured in humidified atmosphere at 5% CO2 and 37 °C. Cells were seeded in plastic 48-well plates (Fisher) for quantitative analysis or 8-well Labtek II plates (Fisher) for qualitative imaging at 100× magnification. The cells were grown to 80–90% confluency in a 37 °C humidified atmosphere containing 5% CO2. Cells were washed three times with Leibovitz’s L15 media (L15) (Fisher). Cells were then incubated with peptide and 20 µM of the TMR-k5 pentalysine probe at 37 °C for 1 h. This was followed by washing the cells three times with L15 supplemented with heparin (Sigma-Aldrich) (1 mg/mL) and an extra L15 wash. […] Additionally, the cell permeable dye Hoechst 33342 (Thermo Fisher Scientific o) was used for nuclear staining. Cells were imaged using an EVOS FL Auto 2 inverted microscope (Thermo Fisher Scientific). The microscope is equipped with a heating chamber maintained at 37 °C. Images were acquired using bright field imaging and five fluorescence filter sets: CFP (Ex = 436 ± 10 nm, Em = 480 ± 20 nm), RFP (Ex = 560 ± 20 nm, Em = 630 ± 35 nm), FITC (Ex = 488 ± 10 nm Em = 520 ± 20 nm), DAPI (Ex = 350 ± 50 nm, Em = 460 ± 25 nm), […]. For image viewing and processing individual images, the Celleste 4.0 software (Thermo Fisher Scientific) was used. Nuclear regions in 20× images where identified using Hoechst staining (the quantification process is described in Figure S13). The intensity of these objects in the TMR channel was then determined using the Celleste software. Cells stained by the SYTOX or DRAQ dyes were considered dead and not counted as positive for delivery. Cells displaying a nuclear TMR-k5 fluorescence above the fluorescence threshold determined for TMR-k5 alone were considered positive for delivery (if excluding SYTOX or DRAQ7 stain, and if visually showing stained nucleoli for confirmation of intracellular localization). The percentage of cells positive for TMR-k5 nuclear staining was then calculated, using Hoechst-stained cells to count the total number of cells present. […] Instead, this assay quantifies the number of cells in which the nuclear fluorescence of TMR-k5 is above a detection threshold. This threshold is dependent on the microscope, imaging conditions, and the concentration of TMR-k5 used during incubation (Figure S13). The reproducibility of all the experiments was assessed by performing experiments with independent batches of cell cultures on three different days (i.e., biological triplicates). […]

[2] = RP-18 TLC hydrophobicity (1-Rf) of Ac-X-NH2 analogs; format: physicochemical; conditions: RP18 TLC, 40% acetonitrile / 60% PBS (10 mM phosphate buffer), pH 4 vs pH 8
Protocol: In order to assess the hydrophobicity contributed by each X group, the peptides were first analyzed by reverse phase HPLC using a C18 column, using gradients of buffer A (water/TFA 99.9:0.1) and buffer B (acetonitrile/water/TFA 89.9:10:0.1 v:v:v) (gradient of 0–40% B over 20 min). […] All d(X)TAT peptides eluted over a range of 10–35% acetonitrile. […] One caveat of this approach is that the buffer system used for peptide analysis is pH 2 (due to the presence of TFA, required to protonate residue side chains). However, pH 2 is not representative of the pH that CPPs may be exposed to when in contact with cells, either pH 7.2 outside the plasma membrane, or pH between 6.5 and 4.5 while inside acidic endosomes. In order to establish the relative hydrophobicities of d(X)TAT peptides at these pHs, we sought to use other techniques, including thin layer chromatography using C18, aluminum oxide or silica stationary phases. Unfortunately, the arginine-rich peptides could not be separated on these systems. To solve this problem, each individual X group was synthesized, using acetylated and amidated N and C-terminal positions to mimic the peptide backbone found in the d(X)TAT constructs (Fig. 1A, Figure S11). Each Ac-X-NH2 group was analyzed by HPLC and by RP18 TLC, using 40% acetonitrile and 60% PBS as mobile phase. The HPLC elutions of Ac-X-NH2 correlated with the HPLC elutions of their respective d(X)TAT counterparts (Fig. 1C). Similarly, the relative hydrophobicities of Ac-X-NH2 determined by TLC (measured as 1-Rf) at pH 4 or 8 were in good agreement with the results obtained by HPLC (Fig. 1D). […] In the case of DEAC, the protonation state of the fluorophore has, to our knowledge, not been characterized.
Hydrophobic substituents (10 µL) were developed on aluminum-backed F254 RP-18 TLC plates (EMD Millipore). Plates were cut into 6 cm × 6 cm squares and developed in 40% acetonitrile/60% 10 mM phosphate buffer first along one axis at pH 2.0, then along the second axis at pH 7.4. Peptide substituents that could not be easily identified under long-wave UV light were stained with iodine for 10–20 min. Retention factors (Rf) were calculated based on the distance traveled by each compound between the starting spotted location and the final solvent front location.

MDA-MB-231 cells [3] = experiment: Staining of endosomes with LysoTracker (puncta per cell); format: cell-based, human; conditions: for lysotracker stained puncta, control agents: MDA-MB-231, LLOME 1 mM 10 min, bafilomycin 1 µM 4 h; for lysotracker-positive puncta per cell 12 h after incubation: MDA-MB-231, 1 h with peptide 1.5 μM, then 12 h in DMEM; for lysotracker stained endosomes (puncta per cell) immediately after incubation: MDA-MB-231, 1 h with peptide (X = K(Ac), WW, FFLIP at 10, 1.5, 1.5 μM), LysoTracker Green DND-26 500 nM 5 min, biological triplicates
Protocol: Given that hydrophobicity of the d(X)TAT peptides appears to contribute to their membrane permeation activities, we next sought to establish whether this relationship could be recapitulated with membrane models, i.e. lipid bilayers. To establish which membrane system to test, we first aimed to test whether d(X)TAT peptides generally recapitulate the mechanism of cell entry previously determined with dfTAT. For this purpose, the delivery of TMR-k5 was performed in cells transfected with dominant-negative (DN) rab7(T22N), a protein that disrupts trafficking from early endosomes to late endosomes[29],[30]. For these experiments, d(WW)TAT and d(FFLIP)TAT were chosen as two “high activity/hydrophobicity” d(X)TAT representatives. […] In this case, approximately 5% of cells remained positive for TMR-k5 nuclear staining. […] To further probe the cell penetration mechanism, the number of endosomal organelles stained by Lysotracker in cells before and after delivery was quantified. The rationale behind this assay is that lysotracker accumulates in acidified organelles, typically late endosomes and lysosomes, that endosomal membrane leakage causes an increase of endosomal pH (presumably via leakage of luminal H^+ into the cytosol), and that, consequently, endosomes rendered potentially leaky by d(X)TAT peptides will not be stained by lysotracker.
For the quantification of acidic vesicles, cells were treated with LysoTracker Green DND-26 (500 nM) for 5 min. Alternatively, cells were pretreated with L-Leu-L-Leu methyl ester (LLOME; Sigma-Aldrich) incubated at 1 mM for 10 min, or bafilomycin (Sigma-Aldrich) at 1 µM for 4 h, and then stained with LysoTracker. Likewise, cells were pretreated with d(X)TAT peptides (X = K(Ac), WW, or FFLIP at 10, 1.5, and 1.5 μM) for 1 h. Cells were then washed an stained with LysoTracker immediately or after 12 h incubation in DMEM. For all conditions, fluorescence microscopy images were acquired using the 100× objective on an Olympus IX-81 microscope. ImageJ was used to calculate the number of LysoTracker-stained puncta per cell, as well as the area of each individual puncta. This analysis was performed for 50 cells imaged for each condition and reproduced in biological triplicates.

Neuro-2a cells = experiment: Delivery inhibition with dominant negative rab7 or CytoD; format: cell-based, mouse; conditions: for cells with TMR-k5 delivery, EGFP-DN-rab7 transfected / nuclear staining of delivered TMR-k5 in cells transfected with EGFP-DN-rab7: Neuro-2a (Fig. 4A), TMR-k5 20 μM, 1 h; for nuclear staining of delivered TMR-k5 in cells transfected with EGFP-DN-rab7: biological triplicates; for cells positive for TMR-k5 nuclear staining in the presence of cytochalasin D / delivery of TMR-k5 in the presence of cytochalasin D: cytoD 20 μM, 30 min pre-incubation and present during 1 h delivery

d(K(Fl))TAT: disulfide dimer of CXRKKRRQRRRG with X = lysine conjugated to carboxyfluorescein (CK(carboxyfluorescein)RKKRRQRRRG-NH2; also: disulfide dimer)
d(X)TAT concentration at which delivery is achieved in a high percentage of cells (MDA-MB-231 cells [1]): > 5 µM

d(W)TAT: disulfide dimer of CXRKKRRQRRRG with X = W (CWRKKRRQRRRG-NH2; also: disulfide dimer)
TMR-k5 delivery activity (cells with TMR-k5 nuclear staining) (MDA-MB-231 cells [1]): little to no TMR-k5 delivery is detected

CC(=O)N[C@@H](Cc1ccccc1)C(N)=O [Ac-F-NH2]
pH dependence of TLC retention (1-Rf) [2]: independent of pH

d(LL)TAT: disulfide dimer of CXRKKRRQRRRG with X = LL
d(X)TAT concentration at which delivery is achieved in a high percentage of cells (MDA-MB-231 cells [1]): > 5 µM

d(Y)TAT: disulfide dimer of CXRKKRRQRRRG with X = Y (CYRKKRRQRRRG-NH2; also: disulfide dimer)
TMR-k5 delivery activity (cells with TMR-k5 nuclear staining) (MDA-MB-231 cells [1]): little to no TMR-k5 delivery is detected

CC(=O)N[C@@H](Cc1c[nH]c2ccccc12)C(N)=O [Ac-W-NH2]
pH dependence of TLC retention (1-Rf) [2]: independent of pH

COC(=O)[C@H](CC(C)C)NC(=O)[C@@H](N)CC(C)C [LLOME, L-Leucine-L-Leucine methyl ester, reference compound]
lysotracker stained puncta, control agents (MDA-MB-231 cells [3]): reduced the number of lysotracker stained puncta

d(F)TAT: disulfide dimer of CXRKKRRQRRRG with X = F (CFRKKRRQRRRG-NH2; also: disulfide dimer)
TMR-k5 delivery activity (cells with TMR-k5 nuclear staining) (MDA-MB-231 cells [1]): little to no TMR-k5 delivery is detected

d(FFLIP)TAT: disulfide dimer of CXRKKRRQRRRG with X = FFLIP (penetration accelerating sequence, Pas)
d(X)TAT concentration at which delivery is achieved in a high percentage of cells (MDA-MB-231 cells [1]): < 3 µM | cells with TMR-k5 delivery, EGFP-DN-rab7 transfected (Neuro-2a cells): 20% | nuclear staining of delivered TMR-k5 in cells transfected with EGFP-DN-rab7 (Neuro-2a cells): markedly reduced | cells positive for TMR-k5 nuclear staining in the presence of cytochalasin D (Neuro-2a cells): approximately 5% | delivery of TMR-k5 in the presence of cytochalasin D (Neuro-2a cells): significantly reduced | lysotracker-positive puncta per cell 12 h after incubation (MDA-MB-231 cells [3]): restored to control level | lysotracker stained endosomes (puncta per cell) immediately after incubation (MDA-MB-231 cells [3]): caused a reduction in lysotracker stained endosomes

d(WW)TAT: disulfide dimer of CXRKKRRQRRRG with X = WW
d(X)TAT concentration at which delivery is achieved in a high percentage of cells (MDA-MB-231 cells [1]): < 3 µM | cells with TMR-k5 delivery, EGFP-DN-rab7 transfected (Neuro-2a cells): 20% | nuclear staining of delivered TMR-k5 in cells transfected with EGFP-DN-rab7 (Neuro-2a cells): markedly reduced | cells positive for TMR-k5 nuclear staining in the presence of cytochalasin D (Neuro-2a cells): approximately 5% | delivery of TMR-k5 in the presence of cytochalasin D (Neuro-2a cells): significantly reduced | lysotracker-positive puncta per cell 12 h after incubation (MDA-MB-231 cells [3]): restored to control level | lysotracker stained endosomes (puncta per cell) immediately after incubation (MDA-MB-231 cells [3]): caused a reduction in lysotracker stained endosomes

CCN(CC)c1ccc2cc(C(=O)NCCCCC(NC(C)=O)C(N)=O)c(=O)oc2c1 (stereo not drawn) [Ac-K(DEAC)-NH2]
pH dependence of TLC retention (1-Rf) [2]: higher hydrophobicity at pH 4 than at pH 8

CO/C1=C\C(C)=C\[C@@H](C)[C@@H](O)[C@@H](C)C/C(C)=C/C=C/[C@H](OC)[C@@H]([C@@H](C)[C@@H](O)[C@H](C)[C@@]2(O)C[C@@H](O)[C@H](C)[C@@H](C(C)C)O2)OC1=O [bafilomycin, reference compound]
lysotracker stained puncta, control agents (MDA-MB-231 cells [3]): reduced the number of lysotracker stained puncta

d(K(DEAC))TAT: disulfide dimer of CXRKKRRQRRRG with X = lysine conjugated to 7-diethylaminocoumarin-3-carboxylic acid (CK(DEAC)RKKRRQRRRG-NH2; also: disulfide dimer)
d(X)TAT concentration at which delivery is achieved in a high percentage of cells (MDA-MB-231 cells [1]): < 3 µM

d(YFIL)TAT: disulfide dimer of CXRKKRRQRRRG with X = YFIL
d(X)TAT concentration at which delivery is achieved in a high percentage of cells (MDA-MB-231 cells [1]): < 3 µM

CC(=O)N[C@@H](Cc1ccc(O)cc1)C(N)=O [Ac-Y-NH2]
pH dependence of TLC retention (1-Rf) [2]: independent of pH
